Results as given in ChEMBL document CHEMBL2074106, “Molecular cloning and tissue distribution of rat peptide transporter PEPT2” (Biochim Biophys Acta, 1996).

Molecular target: T1, Solute carrier family 15 member 2 (Rattus norvegicus) (UniProt Q63424)
T1 sequence (whole entry): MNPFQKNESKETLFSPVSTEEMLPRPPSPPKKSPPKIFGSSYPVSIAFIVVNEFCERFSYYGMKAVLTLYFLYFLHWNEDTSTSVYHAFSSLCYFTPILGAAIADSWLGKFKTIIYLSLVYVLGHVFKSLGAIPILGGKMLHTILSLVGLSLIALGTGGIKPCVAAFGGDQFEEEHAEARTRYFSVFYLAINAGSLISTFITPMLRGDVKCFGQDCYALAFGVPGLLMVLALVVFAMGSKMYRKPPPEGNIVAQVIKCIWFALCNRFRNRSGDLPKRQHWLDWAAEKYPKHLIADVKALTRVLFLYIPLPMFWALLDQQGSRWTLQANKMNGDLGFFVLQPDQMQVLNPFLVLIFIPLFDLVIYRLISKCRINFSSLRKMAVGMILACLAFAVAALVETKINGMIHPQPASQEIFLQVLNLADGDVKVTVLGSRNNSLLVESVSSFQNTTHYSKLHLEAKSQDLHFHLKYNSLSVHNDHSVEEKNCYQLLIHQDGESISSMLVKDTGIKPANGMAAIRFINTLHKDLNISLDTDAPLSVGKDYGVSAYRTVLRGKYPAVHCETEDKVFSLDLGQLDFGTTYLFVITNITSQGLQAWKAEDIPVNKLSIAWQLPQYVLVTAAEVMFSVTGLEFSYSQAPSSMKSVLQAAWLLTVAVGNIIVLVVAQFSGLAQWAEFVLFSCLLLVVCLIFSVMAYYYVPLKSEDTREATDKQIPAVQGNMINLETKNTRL
Experiment: TP_TRANSPORTER: uptake in Xenopus laevis oocytes
Assay type: functional, cell-based
Settings: Oocyte

## CC(C)C[C@H](NC(=O)[C@@H](O)[C@H](N)Cc1ccccc1)C(=O)O
  Activity: substrate [+]
